{"source": "paper PMC5190074", "about": "“BET inhibition as a new strategy for the treatment of gastric cancer” (Oncotarget, 2016)", "experiment_in_all_cases": "biochemical", "set-up_in_all_cases": "thermal shift assay (real-time PCR machine), melting temperature shift of recombinant bromodomains at 2 uM protein", "key": {"[1]": {"target": "T1, TRIM28 (Homo sapiens, UniProt Q13263)", "T1 construct": "bromodomain", "method": "(§1) The recombinant bromodomains at 2 μM were mixed with 10 μM inhibitors. The assays and data evaluation for melting temperatures were performed using a Real-Time PCR Mx3005p machine (Stratagene) and the protocols previously described. Experiments profiling the final compound (PNZ5) were performed in quadruplicates. […] Since its discovery in our own labs, similar inhibitors have also been disclosed by researchers at Boehringer Ingelheim [reference: patent, WO 2014/154760 [31]]. The inhibitor contains two possible acetyl-lysine mimetic moieties. In order to obtain molecular insights on the interaction of the developed inhibitor, the crystal structure of the first bromodomain of BRD4 in complex with PNZ5 was solved at 1.85 Å (Figure 2C and Supplementary Table 4, 5FBX.pdb). The inhibitor, coordinating residues and water molecules were well defined by the electron density. The dimethylisoxazole moiety mimicked the acetyl lysine side chain and formed two canonical hydrogen-bond interactions with Asn140 and water mediated hydrogen-bond with Tyr 97 (Figure 2C). The common network of waters within the binding site was also conserved in the BRD4(1)-PNZ5 complex. The compound was further stabilized by lipophilic interactions with residues forming the binding site Leu92, Leu94, Ile146. The [compound left out] substituent was well accommodated next to the WPF shelf, as well as the N1-methyl substituent that formed hydrophobic interactions with Trp81. The carbonyl on the isoindolinone established a water-mediated hydrogen bond with Lys91."}, "[2]": {"target": "T2, PB1(6) (Homo sapiens, UniProt Q86U86)", "T2 construct": "gene PBRM1; bromodomain 6", "method": "as §1"}, "[3]": {"target": "T3, ASH1L (Homo sapiens, UniProt Q9NR48)", "T3 construct": "bromodomain", "method": "as §1"}, "[4]": {"target": "T4, BRD2(2) (Homo sapiens, UniProt P25440)", "T4 construct": "bromodomain 2", "method": "as §1"}, "[5]": {"target": "T5, BRPF1B (Homo sapiens, UniProt P55201)", "T5 construct": "gene BRPF1; isoform B bromodomain", "method": "as §1"}, "[6]": {"target": "T6, SP140L (Homo sapiens, UniProt Q9H930)", "T6 construct": "bromodomain", "method": "as §1"}, "[7]": {"target": "T7, BRPF3 (Homo sapiens, UniProt Q9ULD4)", "T7 construct": "bromodomain", "T7 sequence (Q9ULD4 whole entry)": "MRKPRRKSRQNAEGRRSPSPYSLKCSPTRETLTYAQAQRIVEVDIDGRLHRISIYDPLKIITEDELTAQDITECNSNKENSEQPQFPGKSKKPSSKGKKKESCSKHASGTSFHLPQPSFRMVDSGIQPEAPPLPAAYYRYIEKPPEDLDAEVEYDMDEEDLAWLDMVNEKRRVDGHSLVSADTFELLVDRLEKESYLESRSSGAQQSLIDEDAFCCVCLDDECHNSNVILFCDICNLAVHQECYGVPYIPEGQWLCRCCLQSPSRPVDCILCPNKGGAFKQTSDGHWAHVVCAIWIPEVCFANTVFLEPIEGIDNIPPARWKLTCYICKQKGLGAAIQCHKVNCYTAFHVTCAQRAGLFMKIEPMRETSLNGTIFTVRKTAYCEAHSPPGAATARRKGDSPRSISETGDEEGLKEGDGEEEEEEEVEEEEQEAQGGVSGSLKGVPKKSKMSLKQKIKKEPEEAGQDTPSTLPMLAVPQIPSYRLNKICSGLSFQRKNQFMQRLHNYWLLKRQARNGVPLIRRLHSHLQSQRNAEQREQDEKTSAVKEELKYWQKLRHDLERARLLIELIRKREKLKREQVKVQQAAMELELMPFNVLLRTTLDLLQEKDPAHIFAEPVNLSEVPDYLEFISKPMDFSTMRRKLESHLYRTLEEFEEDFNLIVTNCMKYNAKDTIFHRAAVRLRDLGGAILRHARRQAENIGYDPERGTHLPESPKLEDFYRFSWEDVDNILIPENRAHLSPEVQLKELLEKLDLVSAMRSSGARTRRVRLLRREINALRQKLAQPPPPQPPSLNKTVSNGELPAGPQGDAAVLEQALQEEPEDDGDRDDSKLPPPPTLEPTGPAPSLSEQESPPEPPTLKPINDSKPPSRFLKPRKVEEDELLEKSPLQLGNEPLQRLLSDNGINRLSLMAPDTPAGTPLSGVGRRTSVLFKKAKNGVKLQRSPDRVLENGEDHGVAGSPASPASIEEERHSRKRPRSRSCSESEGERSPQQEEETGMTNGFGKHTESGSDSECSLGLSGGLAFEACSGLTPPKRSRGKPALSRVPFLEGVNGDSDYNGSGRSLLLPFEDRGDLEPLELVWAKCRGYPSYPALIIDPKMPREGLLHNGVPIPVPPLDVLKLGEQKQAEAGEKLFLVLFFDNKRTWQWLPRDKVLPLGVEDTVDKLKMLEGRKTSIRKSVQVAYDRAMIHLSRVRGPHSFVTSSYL", "method": "as §1"}, "[8]": {"target": "T8, ATAD2B (Homo sapiens, UniProt Q9ULI0)", "T8 construct": "bromodomain", "method": "as §1"}, "[9]": {"target": "T9, TAF1L(1) (Homo sapiens, UniProt Q8IZX4)", "T9 construct": "bromodomain 1", "T9 sequence (Q8IZX4 whole entry)": "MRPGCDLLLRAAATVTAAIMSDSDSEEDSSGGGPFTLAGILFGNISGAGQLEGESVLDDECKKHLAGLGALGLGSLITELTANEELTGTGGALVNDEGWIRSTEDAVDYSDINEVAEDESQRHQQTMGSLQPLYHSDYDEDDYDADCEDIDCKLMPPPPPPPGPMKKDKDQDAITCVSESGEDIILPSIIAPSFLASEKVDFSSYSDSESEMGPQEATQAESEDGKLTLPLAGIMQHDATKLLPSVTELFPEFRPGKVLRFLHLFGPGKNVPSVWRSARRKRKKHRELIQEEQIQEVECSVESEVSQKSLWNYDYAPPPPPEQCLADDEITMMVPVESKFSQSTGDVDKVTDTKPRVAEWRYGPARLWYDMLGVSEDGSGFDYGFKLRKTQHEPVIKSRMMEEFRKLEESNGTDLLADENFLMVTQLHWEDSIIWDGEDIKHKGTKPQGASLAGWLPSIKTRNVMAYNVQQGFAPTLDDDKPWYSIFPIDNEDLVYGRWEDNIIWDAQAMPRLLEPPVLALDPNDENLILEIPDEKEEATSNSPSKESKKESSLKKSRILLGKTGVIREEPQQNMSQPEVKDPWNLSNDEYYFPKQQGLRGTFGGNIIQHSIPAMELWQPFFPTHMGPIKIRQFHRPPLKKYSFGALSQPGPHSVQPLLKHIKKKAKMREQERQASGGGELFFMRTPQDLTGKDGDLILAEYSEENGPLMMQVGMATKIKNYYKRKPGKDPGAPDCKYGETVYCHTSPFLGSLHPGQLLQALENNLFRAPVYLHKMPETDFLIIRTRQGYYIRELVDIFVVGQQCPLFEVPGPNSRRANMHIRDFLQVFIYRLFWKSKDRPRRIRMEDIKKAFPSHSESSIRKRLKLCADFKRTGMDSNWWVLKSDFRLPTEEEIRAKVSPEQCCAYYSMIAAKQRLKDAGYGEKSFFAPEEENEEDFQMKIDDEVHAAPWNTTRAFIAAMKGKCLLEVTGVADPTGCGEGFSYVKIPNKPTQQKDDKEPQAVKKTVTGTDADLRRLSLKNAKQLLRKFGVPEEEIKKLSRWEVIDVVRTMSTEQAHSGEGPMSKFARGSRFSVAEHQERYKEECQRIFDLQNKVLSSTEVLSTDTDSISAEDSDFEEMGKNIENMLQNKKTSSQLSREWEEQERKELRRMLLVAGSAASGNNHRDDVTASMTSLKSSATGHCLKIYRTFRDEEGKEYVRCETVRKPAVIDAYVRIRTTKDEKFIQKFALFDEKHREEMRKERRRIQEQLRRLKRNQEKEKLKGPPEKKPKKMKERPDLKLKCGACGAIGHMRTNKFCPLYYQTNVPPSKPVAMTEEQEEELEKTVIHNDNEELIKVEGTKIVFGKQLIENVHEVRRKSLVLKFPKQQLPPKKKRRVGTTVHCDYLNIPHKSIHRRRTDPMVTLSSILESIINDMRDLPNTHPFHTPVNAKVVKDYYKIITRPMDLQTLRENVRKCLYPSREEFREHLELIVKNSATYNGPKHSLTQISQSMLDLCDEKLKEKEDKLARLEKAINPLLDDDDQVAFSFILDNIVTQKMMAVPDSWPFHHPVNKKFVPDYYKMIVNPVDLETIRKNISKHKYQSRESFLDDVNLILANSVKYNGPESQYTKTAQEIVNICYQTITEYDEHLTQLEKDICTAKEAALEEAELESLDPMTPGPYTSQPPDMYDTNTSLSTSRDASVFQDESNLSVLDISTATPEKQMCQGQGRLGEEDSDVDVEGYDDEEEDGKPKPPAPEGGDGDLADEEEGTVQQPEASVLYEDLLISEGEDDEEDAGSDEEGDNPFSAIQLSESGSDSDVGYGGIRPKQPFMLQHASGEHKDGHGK", "method": "as §1"}, "[10]": {"target": "T10, BRPF1A (Homo sapiens, UniProt P55201)", "T10 construct": "gene BRPF1; isoform A bromodomain", "method": "as §1"}, "[11]": {"target": "T11, BRD2(1) (Homo sapiens, UniProt P25440)", "T11 construct": "bromodomain 1", "method": "as §1"}, "[12]": {"target": "T12, BRD7 (Homo sapiens, UniProt Q9NPI1)", "T12 construct": "bromodomain", "method": "as §1"}, "[13]": {"target": "T13, PB1(2) (Homo sapiens, UniProt Q86U86)", "T13 construct": "gene PBRM1; bromodomain 2", "method": "as §1"}, "[14]": {"target": "T14, SMARCA2 (Homo sapiens, UniProt P51531)", "T14 construct": "bromodomain", "T14 sequence (P51531 whole entry)": "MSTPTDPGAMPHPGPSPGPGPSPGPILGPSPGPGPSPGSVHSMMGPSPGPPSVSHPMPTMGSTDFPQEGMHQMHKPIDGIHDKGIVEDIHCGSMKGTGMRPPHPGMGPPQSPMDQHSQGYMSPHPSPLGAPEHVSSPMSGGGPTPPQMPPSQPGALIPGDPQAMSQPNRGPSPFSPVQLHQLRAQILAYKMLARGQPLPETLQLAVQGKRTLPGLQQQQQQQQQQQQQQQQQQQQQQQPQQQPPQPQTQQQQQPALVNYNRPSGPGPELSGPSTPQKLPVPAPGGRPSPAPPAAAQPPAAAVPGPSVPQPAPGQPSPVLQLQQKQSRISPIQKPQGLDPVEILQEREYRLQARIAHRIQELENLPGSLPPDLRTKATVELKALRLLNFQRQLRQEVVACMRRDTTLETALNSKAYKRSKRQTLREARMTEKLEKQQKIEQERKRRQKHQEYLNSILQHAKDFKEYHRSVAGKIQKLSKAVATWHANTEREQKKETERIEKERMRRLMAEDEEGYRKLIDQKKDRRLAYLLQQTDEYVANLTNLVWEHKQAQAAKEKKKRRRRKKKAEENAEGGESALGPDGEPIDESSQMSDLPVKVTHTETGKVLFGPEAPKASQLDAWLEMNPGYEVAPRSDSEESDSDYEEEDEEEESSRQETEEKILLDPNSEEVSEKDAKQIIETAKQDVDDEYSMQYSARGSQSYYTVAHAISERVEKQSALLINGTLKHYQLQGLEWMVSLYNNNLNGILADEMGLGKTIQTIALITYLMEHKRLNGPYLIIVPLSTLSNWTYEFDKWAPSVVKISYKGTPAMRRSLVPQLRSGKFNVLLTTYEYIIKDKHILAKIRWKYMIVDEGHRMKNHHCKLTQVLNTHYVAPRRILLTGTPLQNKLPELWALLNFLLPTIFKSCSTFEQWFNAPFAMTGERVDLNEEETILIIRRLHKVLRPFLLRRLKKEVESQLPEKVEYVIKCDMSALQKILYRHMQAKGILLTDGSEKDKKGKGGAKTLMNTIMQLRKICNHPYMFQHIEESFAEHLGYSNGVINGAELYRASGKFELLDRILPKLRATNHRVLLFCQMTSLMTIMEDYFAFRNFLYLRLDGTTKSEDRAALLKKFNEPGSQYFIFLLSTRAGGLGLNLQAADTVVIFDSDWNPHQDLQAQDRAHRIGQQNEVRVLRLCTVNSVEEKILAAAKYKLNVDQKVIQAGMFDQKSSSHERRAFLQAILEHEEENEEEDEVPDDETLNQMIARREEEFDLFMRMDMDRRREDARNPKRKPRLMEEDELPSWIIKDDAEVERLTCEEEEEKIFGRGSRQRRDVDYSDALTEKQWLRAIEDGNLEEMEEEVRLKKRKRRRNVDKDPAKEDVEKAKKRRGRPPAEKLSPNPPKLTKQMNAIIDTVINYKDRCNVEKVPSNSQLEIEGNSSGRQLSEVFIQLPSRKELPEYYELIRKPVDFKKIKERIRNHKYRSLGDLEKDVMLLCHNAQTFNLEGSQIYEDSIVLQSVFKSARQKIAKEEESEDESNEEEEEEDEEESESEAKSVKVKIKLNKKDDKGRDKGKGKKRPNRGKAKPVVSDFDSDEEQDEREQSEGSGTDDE", "method": "as §1"}}, "data": [{"compound": "Cc1noc(C)c1-c1ccc2c(c1)[C@H](c1ccccc1)N(C)C2=O", "note": "[PNZ5]", "values": [{"measurement": "ΔTm at 10 µM", "setting": "[1]", "value": -0.11, "unit": "°C"}, {"measurement": "ΔTm at 10 µM", "setting": "[2]", "value": 0.26, "unit": "°C"}, {"measurement": "ΔTm at 10 µM", "setting": "[3]", "value": 0.41, "unit": "°C"}, {"measurement": "ΔTm at 10 µM", "setting": "[4]", "value": 8.13, "unit": "°C"}, {"measurement": "ΔTm at 10 µM", "setting": "[5]", "value": 0.89, "unit": "°C"}, {"measurement": "ΔTm at 10 µM", "setting": "[6]", "value": 1.05, "unit": "°C"}, {"measurement": "ΔTm at 10 µM", "setting": "[7]", "value": 0.95, "unit": "°C"}, {"measurement": "ΔTm at 10 µM", "setting": "[8]", "value": 0.3, "unit": "°C"}, {"measurement": "ΔTm at 10 µM", "setting": "[9]", "value": 0.31, "unit": "°C"}, {"measurement": "ΔTm at 10 µM", "setting": "[10]", "value": 0.81, "unit": "°C"}, {"measurement": "ΔTm at 10 µM", "setting": "[11]", "value": 7.94, "unit": "°C"}, {"measurement": "ΔTm at 10 µM", "setting": "[12]", "value": 0.37, "unit": "°C"}, {"measurement": "ΔTm at 10 µM", "setting": "[13]", "value": 0.27, "unit": "°C"}, {"measurement": "ΔTm at 10 µM", "setting": "[14]", "value": -0.18, "unit": "°C"}]}]}
